Measurements reported in ChEMBL document CHEMBL5143714, “Discovery of BMS-986339, a Pharmacologically Differentiated Farnesoid X Receptor Agonist for the Treatment of Nonalcoholic Steatohepatitis” (J Med Chem, 2022).

Legend:
[1] = Metabolic stability in rat liver microsome assessed as parent compound remaining at […] measured after 10 mins; type: ADME; details: liver microsomes, read-out: Stability
Cytochrome P450 2C19 = Cytochrome P450 2C19 (Homo sapiens, UniProt P33261); assay: Inhibition of recombinant CYP2C19 (unknown origin) using fluorogenic substrate preincubated for 15 min followed by NADPH addition measured after 2 hrs by fluorescence method; type: ADME
Cytochrome P450 2C19, sequence (P33261 whole entry): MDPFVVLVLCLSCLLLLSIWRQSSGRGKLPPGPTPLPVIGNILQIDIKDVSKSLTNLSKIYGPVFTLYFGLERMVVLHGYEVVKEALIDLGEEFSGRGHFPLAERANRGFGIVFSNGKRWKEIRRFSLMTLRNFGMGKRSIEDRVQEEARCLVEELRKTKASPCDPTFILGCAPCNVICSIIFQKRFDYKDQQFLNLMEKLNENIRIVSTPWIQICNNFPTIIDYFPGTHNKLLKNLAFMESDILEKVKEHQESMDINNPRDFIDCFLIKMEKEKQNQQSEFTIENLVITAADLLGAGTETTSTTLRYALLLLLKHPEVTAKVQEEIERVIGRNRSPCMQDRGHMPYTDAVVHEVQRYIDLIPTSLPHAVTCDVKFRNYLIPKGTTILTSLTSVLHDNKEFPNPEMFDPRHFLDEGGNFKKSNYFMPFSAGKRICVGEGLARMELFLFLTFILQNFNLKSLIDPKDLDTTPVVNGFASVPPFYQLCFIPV

Cytochrome P450 3A4 = Cytochrome P450 3A4 (Homo sapiens, UniProt P08684); assay: Inhibition of CYP3A4 in human liver microsomes using fluorogenic substrate preincubated for 15 min followed by NADPH addition measured after 2 hrs by fluorescence based assay; type: ADME, Microsome
Cytochrome P450 3A4, sequence (P08684 whole entry): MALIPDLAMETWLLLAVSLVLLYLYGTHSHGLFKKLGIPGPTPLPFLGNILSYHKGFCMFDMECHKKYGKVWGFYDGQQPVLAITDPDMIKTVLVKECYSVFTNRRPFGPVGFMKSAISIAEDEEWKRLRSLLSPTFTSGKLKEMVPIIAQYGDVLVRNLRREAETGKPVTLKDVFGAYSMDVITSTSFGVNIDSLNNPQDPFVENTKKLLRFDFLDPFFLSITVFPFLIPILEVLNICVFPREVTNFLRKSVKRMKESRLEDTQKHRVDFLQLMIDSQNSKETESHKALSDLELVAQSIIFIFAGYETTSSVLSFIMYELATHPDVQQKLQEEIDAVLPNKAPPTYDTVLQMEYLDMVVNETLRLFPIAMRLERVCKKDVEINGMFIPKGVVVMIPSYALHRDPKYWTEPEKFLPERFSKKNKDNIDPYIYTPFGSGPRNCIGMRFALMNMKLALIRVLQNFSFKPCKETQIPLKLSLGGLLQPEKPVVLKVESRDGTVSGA

remaining at 10 min [1]: 93% | IC50 (Cytochrome P450 2C19): 7 µM | IC50 (Cytochrome P450 3A4): > 20 µM
SMILES: CC(C)(O)c1ccc(-c2cccc(N(CC34CCC(c5noc(C(C)(C)F)n5)(CC3)CC4)C(=O)[C@H]3C[C@](O)(C(F)(F)F)C3)c2)cc1
